For assay [1], the target named is T1, GABABR1a/GABABR2 heterodimer (Homo sapiens, UniProt O75899+Q9UBS5).
T1 construct: expressed in transfected cells; membrane preparation
Nature of the assay: GTPγS35 radioligand filtration-binding assay for determination of agonist potency. The settings on record: membranes of CHO K1 Flp-In cells expressing GABABR1a/GABABR2; compound alone. In kind it is biochemical. As to the method:
The potency and efficacy of the compounds acting as agonists at the GABAB receptor was also determined in a automated GTPγS^35 radioligand filtration-binding assay.
(§1) The GABAB receptor is a G-protein coupled receptor. Binding of a ligand activates the receptor leading to recruitment of G-protein and a substitution of the G-protein bound GDP to GTP. The G-protein becomes active. The G-protein is inactivated by hydrolysis of GTP to GDP. G-proteins are membrane bound and therefore present in membrane preparations.
(§2) In the GTPγS^35 assay, GTP is not present but instead GTPγS^35 where one of the phosphate groups are substituted to a sulphur group which cannot be hydrolysed. Upon activation of the receptor, radiolabelled GTPγS^35 replaces the GDP. The complex cannot be inactivated and the radiolabelled complex is accumulating. At the end of the assay, the reaction mixture is filtered through a membrane-binding filter. Excess GTPγS^35 is removed by washing and the membrane bound S^35, which correlates to the degree of receptor activation, is measured with a β-Liquid Scintillation Counter.
The human GABABR1a was subcloned into pIRESneo3 (Clontech) using GABABR1a construct as a template (refseqN NM001470). GABABR2 was subcloned into pCDNA5/FRT (Invitrogen) using GABABR2 construct as a template (refseqN NM005458). The Kozak sequence GCCACC was introduced before the start codon in both constructs.
For generation of stable cell lines, CHO K1 Flp-In cells (Invitrogen) were grown in DMEM/F 12 1:1 media supplemented with 10% FBS at 37° C. in a humidified CO2-incubator. The cells were detached with Accutase and 1.5 million cells were seeded into T75 flasks. After 24 h, transfection of the cells were performed with the GABABR2 construct. For generation of cell lines expressing GABABR2, GABABR2 plasmid (1 μg) and pOG44 from Invitrogen (9 μg) were mixed with 30 μl Lipofectamine 2000 in 600 μl OptiMEM for 20 minutes. The cells were exposed to transfection medium for 5 hours and was then replaced with culture medium. After 2 days 0.5 mg/ml Hygromycin were added to culture medium. The cells were cultured for an additional 10 days to establish a stable cell mix expressing GABABR2. For generation of a cell line expressing the GABABR1a/GABABR2 heterodimer, GABABR1a plasmid DNA (8 μg) and Lipofectamine (30 μl) were mixed in 600 μl OptiMEM and incubated for 20 minutes before added to CHO-Flp-In cells expressing GABABR2. After 2 days additional selection agent was added (0.8 mg/ml Geneticin). The cells were cultured for another 10 days to generate a stable mixed population expressing the GABABR1a/GABABR2 heterodimer. The cell line was analyzed by GTPγS^35 assay with GABA as agonist.
GTPγS^35 radioligand filtration-binding assays were performed using an automated workstation at 30° C. for 1 hour in assay buffer (50 mM HEPES, 40 mM NaCl, 1 mM MgCl2×6H2O, 30 μg/mL Saponin, pH 7.4 at RT) containing 0.025 μg/μL of membrane protein (prepared from the cell line described above), 10 μM GDP and 0.55 nCi/μL GTPγS^35 in a final volume of 60 μL. The reaction was started by the addition of compounds (GABA was always included as a positive control), start concentration 100 μM dilution factor 3. The reaction was terminated and membranes collected by addition of ice-cold wash buffer (50 mM Tris-HCl, 5 mM MgCl2×6H2O, 50 mM NaCl, pH 7.4 at 4° C.) followed by rapid filtration under vacuum through a MultiScreen HTS 384 FB filter plate. Repeated washing of the filters with ice-cold wash buffer washed the unbound radioligand away. The filter plates were dried for 1½-2 hours at 50° C., then 8 μL scintillation liquid was added per well followed by incubation at RT for at least 20 minutes before bound radioactivity was determined using a β-Liquid Scintillation Counter (1450 Microbeta Trilux, Wallac, Finland)
100% activation (max) is calculated as the mean value for wells containing 1 mM GABA. […]

Assay [2] has as its target T2, GABAB(1A,2) receptor heterodimer (Homo sapiens, UniProt O75899+Q9UBS5).
T2 construct: expressed in transfected cells; membrane preparation
The assay can be described thus: GTPγS35 radioligand filtration-binding assay for determination of PAM potency. In kind it is biochemical. The settings on record: membranes of CHO-K1 cells expressing GABABR1a/GABABR2; concentration required to reduce GABA's EC50 by 50%; PAM at 10, 1, 0.1 and 0.01 μM; read-out: Mean (EC50 derived) PAM EC50.
Excerpt: The effect of GABA in an automated GTPγS^35 radioligand filtration-binding assay in CHO cells expressing the GABAB(1A,2) receptor heterodimer was studied in the presence or absence of the positive allosteric modulator test compounds. […]
as §1, §2
GABABR1a and GABABR2 were cloned from human brain cDNA and subcloned into pCI-Neo (Promega) and pALTER-1 (Promega), respectively.
In order to optimise the Kozak consensus sequence of GABABR2, in situ mutagenesis was performed using the Altered Sites Mutagenesis kit according to manufacturer's instruction (Promega) with the following primer,
5′-[…]-3′. The optimised GABABR2 was then restricted from pALTER-1 with Xho I+Kpn I and subcloned into the mammalian expression vector pcDNA3.1(−)/Zeo (Invitrogen) to produce the final construct, pcDNA3.1(−)/Zeo-GABABR2.
For generation of stable cell lines, CHO-K1 cells were grown in Nut mix F-12 (Ham) media supplemented with 10% FBS, 100 U/ml Penicillin and 100 μg/ml Streptomycin at 37° C. in a humidified CO2-incubator. The cells were detached with 1 mM EDTA in PBS and 1 million cells were seeded in 100 mm petri dishes. After 24 hours the culture media was replaced with OptiMEM and incubated for 1 hour in a CO2-incubator.
For generation of a cell line expressing the GABABR1a/GABABR2 heterodimer, GABABR1a plasmid DNA (4 μg) GABABR2 plasmid DNA (4 μg) and lipofectamine (24 μl) were mixed in 5 ml OptiMEM and incubated for 45 minutes at room temperature. The cells were exposed to the transfection medium for 5 hours, which then was replaced with culture medium. The cells were cultured for an additional 10 days before selection agents (300 μg/ml hygromycin and 400 μg/ml geneticin) were added. Twenty-four days after transfection, single cell sorting into 96-well plates by flow cytometry was performed using a FACS Vantage SE (Becton Dickinson, Palo Alto, Calif.). After expansion, the GABAB receptor functional response was tested by measuring the GABAB receptor dependent release of intracellular calcium in a fluorescence imaging plate reader (FLIPR). The clone with the highest functional response was collected, expanded and then subcloned by single cell sorting. The clonal cell line with the highest peak response in the FLIPR was used in the present study.
GTPγS^35 radioligand filtration-binding assays were performed using an automated workstation at 30° C. for 1 hour in assay buffer (50 mM HEPES, 40 mM NaCl, 1 mM MgCl2×6H2O, 30 μg/mL Saponin, pH 7.4 at RT) containing 0.025 μg/μL of membrane protein (prepared from the cell line described above), 10 μM GDP and 0.55 nCi/μL GTPγS^35 in a final volume of 60 μL. The reaction was started by the addition of serially diluted GABA (final start concentration 1 mM dilution factor 3) in the presence or absence of four concentrations (final conc 10, 1, 0.1 and 0.01 μM) of PAM. The reaction was terminated and membranes collected by addition of ice-cold wash buffer (50 mM Tris-HCl, 5 mM MgCl2×6H2O, 50 mM NaCl, pH 7.4 at 4° C.) followed by rapid filtration under vacuum through a MultiScreen HTS 384 FB filter plate. […]

Molecules are shown by their SMILES.

T2 sequence (Q9UBS5 15-961 limits assumed): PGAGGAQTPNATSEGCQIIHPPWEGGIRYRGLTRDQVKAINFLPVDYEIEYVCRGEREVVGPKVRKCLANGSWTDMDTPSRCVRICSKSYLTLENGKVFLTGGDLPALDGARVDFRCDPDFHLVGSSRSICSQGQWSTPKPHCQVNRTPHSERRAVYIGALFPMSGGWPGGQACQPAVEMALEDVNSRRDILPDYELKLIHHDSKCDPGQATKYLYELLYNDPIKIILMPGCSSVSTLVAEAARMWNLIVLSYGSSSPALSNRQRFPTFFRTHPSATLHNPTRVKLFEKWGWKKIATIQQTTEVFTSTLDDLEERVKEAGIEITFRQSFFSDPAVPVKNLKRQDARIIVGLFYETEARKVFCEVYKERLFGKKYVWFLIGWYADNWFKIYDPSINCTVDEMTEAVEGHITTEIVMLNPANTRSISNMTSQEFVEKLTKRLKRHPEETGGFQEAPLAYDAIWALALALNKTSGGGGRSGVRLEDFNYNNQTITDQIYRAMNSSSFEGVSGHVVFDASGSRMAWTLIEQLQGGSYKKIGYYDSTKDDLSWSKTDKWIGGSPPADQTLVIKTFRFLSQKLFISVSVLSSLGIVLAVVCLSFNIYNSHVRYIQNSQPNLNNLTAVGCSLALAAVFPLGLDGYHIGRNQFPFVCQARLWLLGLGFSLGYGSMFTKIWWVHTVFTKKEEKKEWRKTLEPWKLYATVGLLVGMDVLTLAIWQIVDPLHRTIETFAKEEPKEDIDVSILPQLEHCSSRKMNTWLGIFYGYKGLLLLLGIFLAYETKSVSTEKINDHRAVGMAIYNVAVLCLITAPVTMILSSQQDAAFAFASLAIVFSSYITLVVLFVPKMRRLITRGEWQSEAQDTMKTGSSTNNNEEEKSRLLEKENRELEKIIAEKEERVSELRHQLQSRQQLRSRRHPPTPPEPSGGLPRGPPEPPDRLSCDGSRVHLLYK
T2 sequence (O75899 42-941): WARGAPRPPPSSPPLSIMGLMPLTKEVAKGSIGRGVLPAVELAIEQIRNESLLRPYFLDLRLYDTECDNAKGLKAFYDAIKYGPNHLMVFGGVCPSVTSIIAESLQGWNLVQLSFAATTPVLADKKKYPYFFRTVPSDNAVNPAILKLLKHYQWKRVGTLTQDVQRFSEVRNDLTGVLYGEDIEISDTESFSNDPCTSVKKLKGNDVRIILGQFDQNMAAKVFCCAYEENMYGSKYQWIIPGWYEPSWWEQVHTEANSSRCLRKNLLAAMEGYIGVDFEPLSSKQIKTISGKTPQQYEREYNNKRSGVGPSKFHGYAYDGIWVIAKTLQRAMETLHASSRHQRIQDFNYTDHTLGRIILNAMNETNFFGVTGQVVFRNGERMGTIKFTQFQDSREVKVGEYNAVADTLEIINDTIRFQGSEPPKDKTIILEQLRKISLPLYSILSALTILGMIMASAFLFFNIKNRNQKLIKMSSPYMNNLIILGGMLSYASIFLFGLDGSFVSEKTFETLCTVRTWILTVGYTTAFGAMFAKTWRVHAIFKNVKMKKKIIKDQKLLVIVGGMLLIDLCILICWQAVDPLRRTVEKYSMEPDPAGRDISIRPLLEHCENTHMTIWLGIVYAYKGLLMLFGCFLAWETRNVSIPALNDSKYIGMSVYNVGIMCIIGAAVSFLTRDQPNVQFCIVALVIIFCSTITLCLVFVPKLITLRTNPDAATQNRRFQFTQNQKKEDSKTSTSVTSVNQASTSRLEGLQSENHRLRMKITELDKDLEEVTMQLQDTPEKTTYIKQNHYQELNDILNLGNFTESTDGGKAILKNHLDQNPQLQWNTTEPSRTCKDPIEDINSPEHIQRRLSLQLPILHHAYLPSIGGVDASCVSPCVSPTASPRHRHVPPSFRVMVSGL
T1 sequence (Q9UBS5 15-961 limits assumed): as the sequence (Q9UBS5 15-961 limits assumed) above
T1 sequence (O75899 42-941): as the sequence (O75899 42-941) above

`CCCn1c(=O)n(Cc2ccc(Cl)cc2)c(=O)c2nc3c(nc21)CCCC3` [Example 20, 3-(4-chlorobenzyl)-1-propyl-6,7,8,9-tetrahydrobenzo[g]pteridine-2,4(1H,3H)-dione]: the EC50 in assay [1] and in assay [2] was 800 nM each time. In the case of `CC(C)(C)CCn1c(=O)n(Cc2ccc(Cl)cc2)c(=O)c2nccnc21` [Example 6, 3-(4-chlorobenzyl)-1-(3,3-dimethylbutyl)pteridine-2,4(1H,3H)-dione], the EC50 (as a rule, the concentration at which the effect is half-maximal) in assay [1] stood at 4700 nM; in assay [2] it was 800 nM. Turning to `O=c1c2nc3c(nc2n(CCn2cccc2)c(=O)n1Cc1ccc(Cl)cc1)CCCC3` [Example 17, 3-(4-chlorobenzyl)-1-[2-(1H-pyrrol-1-yl)ethyl]-6,7,8,9-tetrahydrobenzo[g]pteridine-2,4(1H,3H)-dione], the response in assay [1] was half-maximal at 1600 nM (EC50).

Turning to `CCCn1c(=O)n(Cc2ccc(Cl)cc2)c(=O)c2nc(C)c(C)nc21` [Example 15, 3-(4-chlorobenzyl)-6,7-dimethyl-1-propylpteridine-2,4(1H,3H)-dione], the EC50 in assay [1] is 36800 nM; in assay [2], 1300 nM.

Source of the values: US20090088439A1, “Diazinane Compounds” (priority 2007, published 2009).
